According to US10179770B2, “Quinolines derivatives as novel anticancer agents” (GENOSCIENCE PHARMA, priority 2013, dated 2019):

What was measured:
Assay in all cases: NCI-60 screen (SRB)
Type in all cases: cell-based
NCI-H322M = NCI-H322M (Non-Small Cell Lung)
In short: (§1)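 Cells grown in RPMI 1640 with 5% FBS were plated, left 24 h, then exposed to five drug concentrations for 48 h at 37 °C. TCA-fixed protein was stained with SRB and read at 515 nm. GI50, TGI and LC50 were derived against time-zero and untreated control absorbances.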

Colo205 = details: COLO205 (Colon)
In short: as §1

MDA-MB-435 = MDA-MB-435 (Melanoma)
In short: as §1

MALME-3M = MALME-3M (Melanoma)
In short: as §1

HOP-62 = HOP-62 (Non-Small Cell Lung)
In short: as §1

NCI-H23 = NCI-H23 (Non-Small Cell Lung)
In short: as §1

SF-295 = SF-295 (CNS)
In short: as §1

MDA-MB-231/ATCC = MDA-MB-231/ATCC (Breast)
In short: as §1

SK-MEL-2 = SK-MEL-2 (Melanoma)
In short: as §1

DU-145 = DU-145 (Prostate)
In short: as §1

SNB-19 = SNB-19 (CNS)
In short: as §1

SF-268 = SF-268 (CNS)
In short: as §1

MOLT-4 = MOLT-4 (Leukemia)
In short: as §1

SK-OV3 = SK-OV3 (Ovarian)
In short: as §1

T-47D = T-47D (Breast)
In short: as §1

SK-MEL-5 = SK-MEL-5 (Melanoma)
In short: as §1

M14 = M14 (Melanoma)
In short: as §1

[1] = Homo sapiens, read-out: LC50 (the source's name)

Question: How did the GI50 (NCI-H322M; Homo sapiens) turn out when CCN(CC)C1CCN(C(C)c2cc(-c3ccccc3)nc3ccccc23)CC1.Cl.Cl (stereo not shown) [XIX-3, 2-phenyl-4-{1-[4-(N,N-diethylamino)piperidin-1-yl]-eth-1-yl}quinoline dihydrochloride] was run?
Answer: The GI50 was 11 µM.

Question: And the CC50 (NCI-H322M; [1])?
Answer: Its CC50 is 52 µM.

Question: What about the TGI (NCI-H322M) of the same compound?
Answer: The TGI was 24 µM.

Question: And the “Growth percent at 10 μM” value (NCI-H322M)?
Answer: Its value is “+ (cell growth 60 > % < 80)”.

Question: What about the TGI (Colo205) of the same compound?
Answer: The TGI was 4 µM.

Question: And the “Growth percent at 10 μM” value (Colo205)?
Answer: Its value is “××× (cell growth −40 > % < −60)”.

Question: And the GI50 (Colo205; Homo sapiens, COLO 205)?
Answer: The GI50 was 2 µM.

Question: And the CC50 (Colo205; Homo sapiens, COLO 205, read-out: LC50 (the source's name))?
Answer: Its CC50 is 7 µM.

Question: What about the GI50 (MDA-MB-435; Homo sapiens) of the same compound?
Answer: Its GI50 is 2 µM.

Question: What about the CC50 (MDA-MB-435; [1]) of the same compound?
Answer: Its CC50 is 14 µM.

Question: What about the TGI (MDA-MB-435) of the same compound?
Answer: Its TGI is 5 µM.

Question: What about the “Growth percent at 10 μM” value (MDA-MB-435) of the same compound?
Answer: Its value is “++++ (cell growth % < 20)”.

Question: What about the GI50 (MALME-3M; Homo sapiens) of the same compound?
Answer: Its GI50 is 2 µM.

Question: What about the CC50 (MALME-3M; [1]) of the same compound?
Answer: The CC50 was 7 µM.

Question: What about the TGI (MALME-3M) of the same compound?
Answer: The TGI was 4 µM.

Question: And the “Growth percent at 10 μM” value (MALME-3M)?
Answer: Its value is “×× (cell growth −20 > % < −40)”.

Question: And the TGI (HOP-62)?
Answer: Its TGI is 22 µM.

Question: And the “Growth percent at 10 μM” value (HOP-62)?
Answer: Its value is “− (cell growth % > 80)”.

Question: What about the GI50 (HOP-62; Homo sapiens) of the same compound?
Answer: The GI50 was 9 µM.

Question: And the CC50 (HOP-62; [1])?
Answer: The CC50 was 52 µM.

Question: What about the GI50 (NCI-H23; Homo sapiens) of the same compound?
Answer: Its GI50 is > 100 µM.

Question: What about the CC50 (NCI-H23; [1]) of the same compound?
Answer: Its CC50 is > 100 µM.

Question: And the TGI (NCI-H23)?
Answer: The TGI was >100 µM.

Question: And the “Growth percent at 10 μM” value (NCI-H23)?
Answer: The value was “− (cell growth % > 80)”.

Question: And the GI50 (SF-295; Homo sapiens)?
Answer: Its GI50 is 4 µM.

Question: And the CC50 (SF-295; [1])?
Answer: The CC50 was 48 µM.

Question: What about the TGI (SF-295) of the same compound?
Answer: Its TGI is 15 µM.

Question: What about the “Growth percent at 10 μM” value (SF-295) of the same compound?
Answer: The value was “− (cell growth % > 80)”.

Question: What about the GI50 (MDA-MB-231/ATCC; Homo sapiens) of the same compound?
Answer: The GI50 was 3 µM.

Question: What about the CC50 (MDA-MB-231/ATCC; [1]) of the same compound?
Answer: Its CC50 is 47 µM.

Question: And the TGI (MDA-MB-231/ATCC)?
Answer: The TGI was 14 µM.

Question: What about the “Growth percent at 10 μM” value (MDA-MB-231/ATCC) of the same compound?
Answer: The value was “++ (cell growth 40 > % < 60)”.

Question: What about the GI50 (SK-MEL-2; Homo sapiens) of the same compound?
Answer: The GI50 was 3 µM.

Question: And the CC50 (SK-MEL-2; [1])?
Answer: Its CC50 is 27 µM.

Question: And the TGI (SK-MEL-2)?
Answer: The TGI was 7 µM.

Question: What about the “Growth percent at 10 μM” value (SK-MEL-2) of the same compound?
Answer: The value was “++ (cell growth 40 > % < 60)”.

Question: What about the TGI (DU-145) of the same compound?
Answer: Its TGI is 28 µM.

Question: And the “Growth percent at 10 μM” value (DU-145)?
Answer: Its value is “− (cell growth % > 80)”.

Question: And the GI50 (DU-145; Homo sapiens)?
Answer: Its GI50 is 14 µM.

Question: And the CC50 (DU-145; [1])?
Answer: Its CC50 is 54 µM.

Question: What about the GI50 (SNB-19; Homo sapiens) of the same compound?
Answer: Its GI50 is 13 µM.

Question: What about the CC50 (SNB-19; [1]) of the same compound?
Answer: The CC50 was 59 µM.

Question: What about the TGI (SNB-19) of the same compound?
Answer: The TGI was 28 µM.

Question: What about the “Growth percent at 10 μM” value (SNB-19) of the same compound?
Answer: The value was “− (cell growth % > 80)”.

Question: And the GI50 (SF-268; Homo sapiens)?
Answer: The GI50 was 10 µM.

Question: And the CC50 (SF-268; [1])?
Answer: The CC50 was 55 µM.

Question: What about the TGI (SF-268) of the same compound?
Answer: The TGI was 24 µM.

Question: What about the “Growth percent at 10 μM” value (SF-268) of the same compound?
Answer: Its value is “+ (cell growth 60 > % < 80)”.

Question: And the GI50 (MOLT-4; Homo sapiens)?
Answer: Its GI50 is 4 µM.

Question: What about the CC50 (MOLT-4; [1]) of the same compound?
Answer: The CC50 was 49 µM.

Question: And the TGI (MOLT-4)?
Answer: The TGI was 15 µM.

Question: And the “Growth percent at 10 μM” value (MOLT-4)?
Answer: Its value is “++++ (cell growth % < 20)”.

Question: What about the GI50 (SK-OV3; Homo sapiens, SK-OV-3) of the same compound?
Answer: The GI50 was 17 µM.

Question: And the LC50 (concentration killing 50% of cells) (SK-OV3; Homo sapiens, SK-OV-3)?
Answer: The LC50 (concentration killing 50% of cells) was 59 µM.

Question: What about the TGI (SK-OV3) of the same compound?
Answer: The TGI was 31 µM.

Question: And the “Growth percent at 10 μM” value (SK-OV3)?
Answer: Its value is “− (cell growth % > 80)”.

Question: What about the GI50 (T-47D; Homo sapiens, T47D) of the same compound?
Answer: Its GI50 is 5 µM.

Question: What about the CC50 (T-47D; Homo sapiens, T47D, read-out: LC50 (the source's name)) of the same compound?
Answer: Its CC50 is 52 µM.

Question: What about the TGI (T-47D) of the same compound?
Answer: Its TGI is 19 µM.

Question: What about the “Growth percent at 10 μM” value (T-47D) of the same compound?
Answer: The value was “++ (cell growth 40 > % < 60)”.

Question: And the GI50 (SK-MEL-5; Homo sapiens)?
Answer: Its GI50 is 2 µM.

Question: What about the CC50 (SK-MEL-5; [1]) of the same compound?
Answer: The CC50 was 6 µM.

Question: And the TGI (SK-MEL-5)?
Answer: The TGI was 3 µM.

Question: What about the “Growth percent at 10 μM” value (SK-MEL-5) of the same compound?
Answer: The value was “××××× (cell growth % < −80)”.

Question: What about the GI50 (M14; Homo sapiens) of the same compound?
Answer: Its GI50 is 2 µM.

Question: What about the CC50 (M14; [1]) of the same compound?
Answer: Its CC50 is 8 µM.

Question: And the TGI (M14)?
Answer: Its TGI is 4 µM.

Question: What about the “Growth percent at 10 μM” value (M14) of the same compound?
Answer: Its value is “××× (cell growth −40 > % < −60)”.

Question: With CC(C)(C)NC1CCN(c2cc(-c3ccc(Cl)cc3)nc3ccccc23)CC1.Cl.Cl [XII-4, 2-(4-chloro-phenyl)-4-(4-N-tert-butylamino-piperidin-1-yl)quinoline dihydrochloride] as the compound, how does the “Growth percent at 10 μM” value (NCI-H322M) read?
Answer: Its value is “++ (cell growth 40 > % < 60)”.

Question: What about the “Growth percent at 10 μM” value (Colo205) of the same compound?
Answer: Its value is “×××× (cell growth −60 < % > −80)”.

Question: What about the “Growth percent at 10 μM” value (MDA-MB-435) of the same compound?
Answer: Its value is “++++ (cell growth 0 > % < 20)”.

Question: And the “Growth percent at 10 μM” value (MALME-3M)?
Answer: The value was “××× (cell growth −40 < % > −60)”.

Question: And the “Growth percent at 10 μM” value (HOP-62)?
Answer: The value was “+ (cell growth 60 > % < 80)”.

Question: What about the “Growth percent at 10 μM” value (NCI-H23) of the same compound?
Answer: Its value is “− (cell growth % > 80)”.

Question: And the “Growth percent at 10 μM” value (SF-295)?
Answer: Its value is “− (cell growth % > 80)”.

Question: And the “Growth percent at 10 μM” value (MDA-MB-231/ATCC)?
Answer: Its value is “×× (cell growth −20 < % > −40)”.

Question: And the “Growth percent at 10 μM” value (SK-MEL-2)?
Answer: The value was “− (cell growth % > 80)”.

Question: What about the “Growth percent at 10 μM” value (DU-145) of the same compound?
Answer: The value was “− (cell growth % > 80)”.

Question: What about the “Growth percent at 10 μM” value (SNB-19) of the same compound?
Answer: The value was “− (cell growth % > 80)”.

Question: What about the “Growth percent at 10 μM” value (SF-268) of the same compound?
Answer: The value was “+ (cell growth 60 > % < 80)”.

Question: And the “Growth percent at 10 μM” value (MOLT-4)?
Answer: Its value is “++ (cell growth 40 > % < 60)”.

Question: What about the “Growth percent at 10 μM” value (SK-OV3) of the same compound?
Answer: Its value is “− (cell growth % > 80)”.

Question: What about the “Growth percent at 10 μM” value (T-47D) of the same compound?
Answer: The value was “++ (cell growth 40 > % < 60)”.

Question: What about the “Growth percent at 10 μM” value (SK-MEL-5) of the same compound?
Answer: The value was “++++ (cell growth 0 > % < 20)”.

Question: And the “Growth percent at 10 μM” value (M14)?
Answer: The value was “×××× (cell growth −60 < % > −80)”.
